System: MCF-7 cells
Assay: Compound in combination with CDK4/6 inhibitor palbociclib against proliferation of MCF-7 cells
Assay type: cell-based
Details: for IC50: Homo sapiens
Method: 1) CWR22RV1 cells were subcultured in cell culture medium, and the cells in good growth condition were seeded in a 96-well plate, 60 μL for each well, and the cell number in each well was 2000. The plate was incubated overnight in a 37° C., 5% CO2 cell incubator. 2) The drug was prepared as 10 mM stock solution with dimethyl sulfoxide (DMSO). Prior to use, the stock solution was diluted 3 times with DMSO, and then further diluted as 3-fold gradient to obtain 9 concentration gradients. Then, each concentration of compound was diluted 200 times with the culture solution (ensuring that the DMSO concentration in the culture system was 0.1%), and two replicate wells were set for each concentration. 20 μL of diluted compound solution was added to the cell culture well (with final concentrations of 10 μM, 3.3 μM, 1.1 μM . . . ). Palbociclib was diluted with culture medium to 500 nM, 150 nM, 50 nM, 5 nM, and 20 μL diluted compound solution was added to the corresponding cell culture wells (with a final concentration of 100 nM, 30 nM, 10 nM, 1 nM). The plate was gently shaken to mix. In addition, 3 negative control wells containing only cells and 3 blank control wells containing only culture medium were included (6 wells were each added 20 μL DMSO diluted 200 times with culture medium).
(1) After culturing for 6 days, 10 μL CCK-8 was added to each well, and the plate was continually cultured in a 37° C., 5% CO2 cell incubator for 2.5 h. (2) The absorbance (OD value) was detected at 450 nm using a multifunctional microplate reader. (3) The data were analyzed by Dose-response-inhibition equation in the software GraphPad Prism6, and the IC50 value was obtained.
Using the same method as Experimental example 4, CWR22RV1 cells were replaced with MCF-7 cells, and the IC50 values (nM) of the compound according to the present invention, palbociclib, as well as the combination of the compound according to the present invention and palbociclib against the proliferation of MCF-7 cells w ere tested and calculated.

Which IC50 (MCF7, in combination with 10 nM palbociclib) does the source give for `CNC(=O)Nc1ccc2c(c1)CC[C@@]21OC(=O)N(CC(=O)N2C(C)CC[C@H]2c2cc(F)c(F)c(F)c2)C1=O` (stereo in doubt) [Example 205, 1-((R)-3′-(2-((2S,5R)-2-(3,4,5-trifluorophenyl)-5-methylpyrrolidin-1-yl)-2-oxoethyl)-2′,4′-dioxo-2,3-dihydrospiro[indene-1,5′-oxazolidine]-5-yl)-3-methylurea] here?
The IC50 was 19 nM.

What about the IC50 (MCF7, in combination with 30 nM palbociclib) of the same compound?
The IC50 was 1.6 nM.

And the IC50 (MCF7, in combination with 100 nM palbociclib)?
The IC50 was 1.5 nM.

And the IC50 (MCF7, single agent)?
The IC50 was 81 nM.

And the “inhibitory activity on MCF-7 cells when combined with palbociclib, versus either agent alone” value (combination with CDK4/6 inhibitor palbociclib)?
Its value is “much higher”.

Reference: US20220087996A1, “Histone acetylase p300 inhibitor and use thereof” (HINOVA PHARMACEUTICALS INC., priority 2018, published 2022)
